“And” between values parts separate entries of the source, which are not always exact repeats. Identical values can stand only once. Inconclusive results and toxic doses are left out. Rule as the data show it: active = T/C of 150% or more; inactive = T/C below 125%.
Test system: L1210 leukemia ip in BDF1 mice, survival T/C
Test: NCI In Vivo Anticancer Drug Screen. Data for tumor model L1210 Leukemia (intraperitoneal) in B6D2F1 (BDF1) mice
Conditions: endpoint: mean survival time, higher = longer survival
In short: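 Mice bearing the transplanted tumor received compound or vehicle. Survival of the treated group was divided by that of the vehicle-treated control group to give the ratio.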

[1] = dose: 100.0 mg/kg/injection, schedule: Q01DX001 (ip), vehicle: saline
[2] = dose: 200.0 mg/kg/injection, schedule: Q01DX001 (ip), vehicle: saline
[3] = dose: 400.0 mg/kg/injection, schedule: Q01DX001 (ip), vehicle: saline
[4] = dose: 100.0 mg/kg/injection, schedule: Q01DX001 (ip), vehicle: carboxymethylcellulose (CMC)
[5] = dose: 200.0 mg/kg/injection, schedule: Q01DX001 (ip), vehicle: carboxymethylcellulose (CMC)
[6] = dose: 100.0 mg/kg/injection, schedule: Q01DX009 (ip), vehicle: Klucel (hydroxypropylcellulose) (HPC)
[7] = dose: 200.0 mg/kg/injection, schedule: Q01DX009 (ip), vehicle: Klucel (hydroxypropylcellulose) (HPC)
[8] = dose: 400.0 mg/kg/injection, schedule: Q01DX009 (ip), vehicle: Klucel (hydroxypropylcellulose) (HPC)
[9] = dose: 100.0 mg/kg/injection, schedule: Q04DX003 (ip), vehicle: Klucel (hydroxypropylcellulose) (HPC)
[10] = dose: 200.0 mg/kg/injection, schedule: Q04DX003 (ip), vehicle: Klucel (hydroxypropylcellulose) (HPC)
[11] = dose: 400.0 mg/kg/injection, schedule: Q04DX003 (ip), vehicle: Klucel (hydroxypropylcellulose) (HPC)
[12] = dose: 75.0 mg/kg/injection, schedule: Q04DX003 (ip), vehicle: saline
[13] = dose: 150.0 mg/kg/injection, schedule: Q04DX003 (ip), vehicle: saline
[14] = dose: 300.0 mg/kg/injection, schedule: Q04DX003 (ip), vehicle: saline
[15] = dose: 50.0 mg/kg/injection, schedule: Q01DX009 (ip), vehicle: saline
[16] = dose: 100.0 mg/kg/injection, schedule: Q01DX009 (ip), vehicle: saline
[17] = dose: 100.0 mg/kg/injection, schedule: Q04DX003 (ip), vehicle: saline
[18] = dose: 200.0 mg/kg/injection, schedule: Q01DX009 (ip), vehicle: saline
[19] = dose: 200.0 mg/kg/injection, schedule: Q04DX003 (ip), vehicle: saline
[20] = dose: 50.0 mg/kg/injection, schedule: Q01DX009 (ip), vehicle: Klucel (hydroxypropylcellulose) (HPC)
[21] = dose: 100.0 mg/kg/injection, schedule: Q01DX001 (ip), vehicle: saline with Tween-80
[22] = dose: 200.0 mg/kg/injection, schedule: Q01DX001 (ip), vehicle: saline with Tween-80

Measured: T/C

CC/C(=C(\CC)c1ccc(OCCOS(=O)(=O)c2ccc(C)cc2)cc1)c1ccc(OCCOS(=O)(=O)c2ccc(C)cc2)cc1
inactive: dose: 6.25 mg/kg/injection, schedule: Q04DX002 (ip), vehicle: saline 101 % of control | dose: 12.5 mg/kg/injection, schedule: Q04DX002 (ip), vehicle: saline 105 % of control | dose: 25.0 mg/kg/injection, schedule: Q04DX002 (ip), vehicle: saline 97 % of control

COC1OCC(O)C(O)C1OS(C)(=O)=O (stereo not given)
inactive: [1] 110 % of control | [2] 101 % of control | [3] 104 % of control

Cc1ccc(N=Nc2ccc([N+](=O)[O-])cc2)c([N+](=O)[O-])c1
inactive: [4] 96 % of control | [5] 93 % of control | dose: 400.0 mg/kg/injection, schedule: Q01DX001 (ip), vehicle: carboxymethylcellulose (CMC) 96 % of control

N#[N+]c1n[nH]nc1C(N)=O
inactive: dose: 25.0 mg/kg/injection, schedule: Q01DX Z (ip), vehicle: carboxymethylcellulose (CMC) 97 % of control | dose: 35.0 mg/kg/injection, schedule: Q01DX Z (ip), vehicle: carboxymethylcellulose (CMC) 95 % of control

COC(=O)C1C2CC/C=C\CCC21 (stereo not given)
inactive: [6] 91 % of control | [7] 87 % of control | [8] 91 % of control

Clc1ccccc1C(c1ccccc1)(c1ccc2ccccc2c1)n1ccnc1 (stereo not given)
inactive: [9] 102 % of control | [10] 101 % of control | [11] 101 % of control

O=C(CCl)NC(O)C(Cl)(Cl)Cl (stereo not given)
inactive: dose: 1.8 mg/kg/injection, schedule: Q01DX009 (ip), vehicle: saline with Tween-80 100 % of control | dose: 3.7 mg/kg/injection, schedule: Q01DX009 (ip), vehicle: saline with Tween-80 98 % of control | dose: 7.5 mg/kg/injection, schedule: Q01DX009 (ip), vehicle: saline with Tween-80 102 % of control | [12] 101 % of control | [13] 101 % of control | [14] 87 % of control

CNCC(SC)c1ccc(O)c(O)c1 (stereo not given)
inactive: [15] 103 % of control | [16] 103 % of control | [17] 114 % of control | [18] 121 % of control | [19] 114 % of control

COc1ccc(-c2nc(SCc3ccc(Cl)cc3)[nH]c(=O)c2CCO)cc1
inactive: [20] 95 % of control | [6] 101 % of control | [17] 111 % of control | [7] 96 % of control | [19] 95 % of control

CC(=O)c1ccc(N2C(=O)C=CC2=O)cc1
inactive: dose: 25.0 mg/kg/injection, schedule: Q04DX003 (ip), vehicle: Klucel (hydroxypropylcellulose) (HPC) 114 % of control | dose: 50.0 mg/kg/injection, schedule: Q04DX003 (ip), vehicle: Klucel (hydroxypropylcellulose) (HPC) 115 % of control

CC(=O)ONC(NOC(C)=O)N[N+](=O)[O-]
inactive: [1] 103 % of control | [2] 98 % of control | [3] 102 % of control

O=C1NC2CCC1c1ccccc12 (stereo not given)
inactive: dose: 50.0 mg/kg/injection, schedule: Q01DX001 (ip), vehicle: carboxymethylcellulose (CMC) 110 % of control | [4] 105 % of control | [5] 108 % of control

NC1CCS(=O)(=O)CC1
inactive: dose: 100.0 mg/kg/injection, schedule: Q01DX001 (ip), vehicle: water 93 % of control | dose: 200.0 mg/kg/injection, schedule: Q01DX001 (ip), vehicle: water 101 % of control | dose: 400.0 mg/kg/injection, schedule: Q01DX001 (ip), vehicle: water 104 % of control

O=C(Nc1ccc([N+](=O)[O-])cc1)OCC#CC#CCOC(=O)Nc1ccc([N+](=O)[O-])cc1
inactive: [20] 104 % of control | [6] 100 % of control | [7] 86 % of control

CCC1C(=O)OCc2c1c(Br)cn(C)c2=O (stereo not given)
inactive: dose: 12.5 mg/kg/injection, schedule: Q04DX003 (ip), vehicle: saline 98 % of control | dose: 12.5 mg/kg/injection, schedule: Q04DX003 (oral), vehicle: saline with Tween-80 100 % of control | dose: 25.0 mg/kg/injection, schedule: Q01DX001 (ip), vehicle: saline with Tween-80 101 % of control | dose: 25.0 mg/kg/injection, schedule: Q04DX003 (ip), vehicle: saline 97 % of control | dose: 25.0 mg/kg/injection, schedule: Q04DX003 (oral), vehicle: saline with Tween-80 100 % of control | dose: 50.0 mg/kg/injection, schedule: Q01DX001 (ip), vehicle: saline with Tween-80 93 % of control | dose: 50.0 mg/kg/injection, schedule: Q04DX003 (ip), vehicle: saline 108 % of control | dose: 50.0 mg/kg/injection, schedule: Q04DX003 (oral), vehicle: saline with Tween-80 104 % of control | [21] 97 % of control | [17] 93 % of control | dose: 100.0 mg/kg/injection, schedule: Q04DX003 (oral), vehicle: saline with Tween-80 96 % of control | [22] 101 % of control

Cc1ccc2c(c1)P(O)(=S)c1cc(Cl)ccc1O2 (stereo not given)
inactive: dose: 25.0 mg/kg/injection, schedule: Q01DX009 (ip), vehicle: saline 102 % of control | [15] 108 % of control | [16] 108 % of control | [18] 108 % of control

O=C(Nc1ccc(Cl)c(Cl)c1)Oc1ccc(Cl)cc1C(=O)Nc1ccccc1
inactive: [6] 100 % of control | [7] 100 % of control | [8] 87 % of control

Nc1[nH]cnc(=S)c1NC=O
inactive: dose: 100.0 mg/kg/injection, schedule: Q01DX001 (ip), vehicle: acetone 92 % of control | dose: 200.0 mg/kg/injection, schedule: Q01DX001 (ip), vehicle: acetone 92 % of control | dose: 400.0 mg/kg/injection, schedule: Q01DX001 (ip), vehicle: acetone 88 % of control

Cc1c2cnccc2c(C)c2c1c1ccccc1n2CCCl
inactive: dose: 31.25 mg/kg/injection, schedule: Q01DX009 (ip), vehicle: saline with Tween-80 106 % of control | dose: 37.5 mg/kg/injection, schedule: Q04DX003 (ip), vehicle: saline 93 % of control | dose: 62.5 mg/kg/injection, schedule: Q01DX009 (ip), vehicle: saline with Tween-80 109 % of control | [12] 97 % of control | [13] 98 % of control | [14] 100 % of control

CCn1c(C)nc2cc(N=Cc3ccc(N(CCCl)CCCl)cc3)ccc21
inactive: dose: 100.0 mg/kg/injection, schedule: Q04DX002 (ip), vehicle: Klucel (hydroxypropylcellulose) (HPC) 113 % of control | dose: 200.0 mg/kg/injection, schedule: Q04DX002 (ip), vehicle: Klucel (hydroxypropylcellulose) (HPC) 106 % of control | dose: 400.0 mg/kg/injection, schedule: Q04DX002 (ip), vehicle: Klucel (hydroxypropylcellulose) (HPC) 106 % of control

CCSC1C(O)OC(CO)C(O)C1O (stereo not given)
inactive: [1] 95 % of control | [2] 106 % of control | [3] 104 % of control

COc1ccc(-c2nc(SCc3ccccc3)[nH]c(=O)c2CCO)cc1
inactive: [9] 95 % of control | [10] 88 % of control | [11] 93 % of control

CCOC(=O)c1ccc(NC(=O)Nc2ccccc2OC)cc1
inactive: [21] 89 % of control | dose: 100.0 mg/kg/injection, schedule: Q01DX009 (ip), vehicle: saline with Tween-80 92 % of control | dose: 100.0 mg/kg/injection, schedule: Q04DX002 (ip), vehicle: saline with Tween-80 94 % of control and 87 % of control | [22] 92 % of control | dose: 200.0 mg/kg/injection, schedule: Q01DX009 (ip), vehicle: saline with Tween-80 95 % of control | dose: 200.0 mg/kg/injection, schedule: Q04DX002 (ip), vehicle: saline with Tween-80 87 % of control and 91 % of control | dose: 200.0 mg/kg/injection, schedule: Q04DX003 (ip), vehicle: saline with Tween-80 87 % of control | dose: 400.0 mg/kg/injection, schedule: Q01DX001 (ip), vehicle: saline with Tween-80 86 % of control | dose: 400.0 mg/kg/injection, schedule: Q01DX009 (ip), vehicle: saline with Tween-80 87 % of control | dose: 400.0 mg/kg/injection, schedule: Q04DX002 (ip), vehicle: saline with Tween-80 87 % of control | dose: 400.0 mg/kg/injection, schedule: Q04DX003 (ip), vehicle: saline with Tween-80 92 % of control
